From patent US9790218B2, “Small molecule activators of calcium-activated chloride channels and methods of use” (The Regents of the University of California, priority 2011, dated 2017)
Values joined by “and” are separate entries in the source; they are usually repeats but may differ in a detail not shown here. Equal values may be shown once.

Molecular target: T1, TMEM16A (Homo sapiens, UniProt Q5XXA6, DEL476-501)
T1 construct: expressed in transfected cells
T1 sequence (Q5XXA6 with tags, fused parts or gaps isoform Q5XXA6-5 DEL539-564): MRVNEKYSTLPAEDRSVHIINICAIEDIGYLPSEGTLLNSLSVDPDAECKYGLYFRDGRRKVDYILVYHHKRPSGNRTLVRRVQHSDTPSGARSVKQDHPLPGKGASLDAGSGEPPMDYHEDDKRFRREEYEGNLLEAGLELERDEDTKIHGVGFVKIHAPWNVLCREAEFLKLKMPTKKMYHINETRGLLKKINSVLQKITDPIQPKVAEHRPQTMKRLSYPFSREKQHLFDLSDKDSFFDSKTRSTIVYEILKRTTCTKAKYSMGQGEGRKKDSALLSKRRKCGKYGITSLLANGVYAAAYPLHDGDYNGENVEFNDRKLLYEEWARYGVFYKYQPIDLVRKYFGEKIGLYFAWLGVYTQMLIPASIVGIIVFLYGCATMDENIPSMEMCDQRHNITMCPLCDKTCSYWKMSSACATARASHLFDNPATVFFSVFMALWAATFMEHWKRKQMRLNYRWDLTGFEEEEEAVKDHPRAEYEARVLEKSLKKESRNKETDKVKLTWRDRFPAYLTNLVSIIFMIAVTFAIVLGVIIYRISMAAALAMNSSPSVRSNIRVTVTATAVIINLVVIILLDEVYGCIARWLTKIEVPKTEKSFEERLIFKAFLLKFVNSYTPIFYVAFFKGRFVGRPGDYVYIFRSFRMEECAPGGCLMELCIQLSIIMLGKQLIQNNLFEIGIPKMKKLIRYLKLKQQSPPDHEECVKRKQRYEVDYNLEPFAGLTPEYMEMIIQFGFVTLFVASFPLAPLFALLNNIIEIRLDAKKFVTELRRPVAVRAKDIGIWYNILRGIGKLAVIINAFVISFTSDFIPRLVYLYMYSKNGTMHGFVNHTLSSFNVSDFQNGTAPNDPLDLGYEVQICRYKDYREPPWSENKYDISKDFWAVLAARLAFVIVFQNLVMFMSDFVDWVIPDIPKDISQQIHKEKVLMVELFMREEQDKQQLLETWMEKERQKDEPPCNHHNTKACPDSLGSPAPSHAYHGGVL
Test: Apical membrane current in TMEM16A-expressing FRT cells
Format: cell-based
Protocol: FRT cells were stably transfected with human TMEM16A (TMEM16A(abc), cDNA provided by Dr. Luis Galietta, Gaslini Institute, Genoa, Italy) and the halide sensor YFP-H148Q/1152L/F46L. Cells were plated in 96-well black-walled microplates (Corning Inc., Corning, N.Y.) at a density of 20,000 cells per well in Coon's modified F12 medium supplemented with 5% fetal calf serum, 2 mM L-glutamine, 100 U/mL penicillin and 100 μg/mL streptomycin. The human submandibular cell line A253 (ATCC HTB 41) was cultured in complete McCoy's 5A medium supplemented with 10% fetal bovine serum, 100 U/mL penicillin and 100 μg/mL streptomycin.
Snapwell inserts containing TMEM16A-expressing FRT, HBE, CF HBE or HTG cells were mounted in Ussing chambers (Physiologic Instruments, San Diego, Calif.). Amiloride, CFTRinh-172, UTP, ATP, T16Ainh-A01 and TMEM16A activators were added to the apical solution and an equal volume of vehicle was added at the same time to the basolateral solution. Symmetrical HCO3^−-buffered solutions were used for HBE, CF HBE and HTG cells. For FRT cells, the hemichambers were filled with a half-Cl^− solution (apical) and the HCO3^−-buffered solution (basolateral), and the basolateral membrane was permeabilized with 250 μg/mL amphotericin B, as described (Namkung et al. (2010), supra). Cells were bathed for a 10 min stabilization period and aerated with 95% O2/5% CO2 at 37° C. or room temperature. Apical membrane current (for FRT cells) and short-circuit current were measured using an EVC4000 Multi-Channel V/I Clamp (World Precision Instruments, Sarasota, Fla.) and recorded using PowerLab/8sp (AD Instruments, Castle Hill, Australia).
The current increase was sustained for >10 min (FIG. 2B, inset). […] Data are also shown for a second Fact compound (Fact9, see Table 1) in FIG. 9.

## O=C(Nc1ccc(Br)cc1)c1cccc(-n2cnnn2)c1 [Fact, N-(4-bromophenyl)-3-(1H-tetrazol-1-yl)benzamide]
1-3 μM Fact after 1 μM Eact
  TMEM16A current following 1 μM Eact (synergy): greatly increased TMEM16A current
1-3 μM Fact alone
  TMEM16A activation alone: little TMEM16A activation
EC50 from concentration-activation data, apical membrane current
  EC50: 3 to 6 µM and ~6 µM
Apical membrane current
  maximal TMEM16A activation compared to ATP effect: maximal TMEM16A activation
Basolateral membrane permeabilized, Cl^− gradient, ATP 100 μM
  Cl^− current (apical membrane current): large, concentration-dependent increases in Cl^− current

## CCc1c(C)nc(SCC(=O)Nc2nc(-c3ccc(OC)cc3)cs2)[nH]c1=O [T16Ainh-A01, reference compound]
T16Ainh-A01 10 μM
  inhibition of Eact- and Fact-induced Cl^− current: inhibited
